{"source": "patent US8048870B2", "about": "“Apoptosis-inducing antineoplastic silver (I) coordination complexes” (priority 2005, dated 2011)", "key": {"[1]": {"system": "T-47D cells", "test": "DeadEnd Colorimetric TUNEL assay for in-situ apoptosis, T-47D", "assay_type": "cell-based, human", "details": "18 hours of incubation", "protocol": "(§1) Detection of in-situ apoptosis was performed by the DeadEnd Colorimetric TUNEL (terminal deoxynucleotidyltransferase nick end labeling) assay for the detection of apoptosis in cultured cells as described in Promega kit (Promega Corporation-2800 Woods Hollow Road, Madison, Wis. 53711-5399, USA). Briefly, control and apoptosis-induced cells were centrifuged, washed with PBS, and were fixed on glass slides coated with poly-L-lysine (Sigma-Aldrich). The cells were fixed by immersing the slides in 10% buffered formalin, 4% paraformaldehyde solution for 25 minutes at room temperature. The fixed cells were then washed twice with fresh PBS for 5 minutes at room temperature. The cells were permeabilized by immersing the slides in 0.2% Triton® X-100 solution in PBS for 5 minutes at room temperature. The slides were then rinsed twice with PBS for 5 minutes each at room temperature. The excess liquid was then removed by tapping the slides, and the cells were covered with 100 μL of Equilibration Buffer, and the slides were equilibrated for 8 minutes at room temperature. Then, 100 μL of rTdT reaction mix were added and blotted around the equilibrated areas. The slides were then incubated at 37° C. for an hour inside a humidifier. Then, the reactions were terminated, the slides were washed and 0.3% hydrogen peroxide, and other reagents and washing steps were conducted according to the manufacturer's instructions. The slides were then observed under a light microscope for apoptotic staining. For comparative purposes, apoptotic studies were also performed on cisplatin. […]\n(§2) To examine the mode of inherent chemotherapeutic activities of silver (I) complexes, apoptosis was detected by the TUNEL assay for each cell line studies for Phases I, II and III identified above. […] The 18 and 6-hour incubation periods were chosen because it was determined in previous experiments of this work that induction of apoptosis of silver (I) complex was within these times for these two cell lines."}, "[2]": {"system": "Jurkat cells", "test": "DeadEnd Colorimetric TUNEL assay for in-situ apoptosis, Jurkat", "assay_type": "cell-based, human", "details": "6 hours of incubation", "protocol": "as §1, §2"}, "[3]": {"system": "T-47D human breast carcinoma", "test": "Cytotoxicity (% inhibition), trypan blue dye exclusion viable cell count, T-47D", "assay_type": "cell-based", "protocol": "The chemotherapeutic activities of the silver (I) coordination complex were determined on T-47D human breast carcinoma and Jurkat T-cell acute lymphoblastic leukemia, and compared with cisplatin (Pt(NH3)2Cl2) at 385 μg/mL, corresponding to 250 μg/mL platinum, which is the same concentration used for Ag for the experiments described in Examples 1 and 2, below. The two tumor cell lines were chosen very carefully so as to include solid (T-47D) and disseminated (Jurkat) neoplasia. Cells are plated in a 96-well flat bottom tissue culture plates at 50,000 cells/well. The experiments were conducted by serial dilution.\nAll cell lines were grown and tested in complete RPMI-1640 medium supplemented with 10% FBS, 40 μg/mL GEN, HEPES buffer of pH=7.2, 2 mM L-glutamine and sodium pyruvate. Plates were incubated in 5% CO2 at 37° C. in a humidified incubator for 24 hrs. Human tumor cells were maintained in the log phase by routine passaging every 2-3 days.\nTo assess % inhibition of tumor cells, the number of viable cells were counted by trypan blue dye exclusion method on a hemocytometer by microscopy, and adjusted for concentration of cells/mL. Briefly, each well was plated and washed with PBS twice and then harvested with 0.5 mL of Trypsin/EDTA. Cells were diluted with 1 ml of culture media and stained with trypan blue dye.\nTo examine if there was any interaction between culture medium and test reagents, the test culture was also inoculated with the present reagents without the presence of any of the drugs. […] All experiments were done in triplicates, and the results are averaged and reported.\nRegression models were applied to the data to assess the correlation between % inhibition and concentration. Multiple curve estimation procedure was employed, and the relative fit for each model was determined on the basis of the values of the correlation coefficient, r^2; the fit that gives r^2 values closer to 1.0 was selected. The regression equations were then integrated over the concentration intervals for each phase, and their sum was taken as the AUCt>24."}, "[4]": {"details": "patients, i.v. injections; cited from earlier work"}}}
{"compound": "N.N.[Cl][Pt][Cl]", "note": "[CIS-Pt, cis-diaminedichloroplatinum (II)]", "values": [{"measurement": "apoptotic staining (TUNEL)", "setting": "[1]; 0.0076 μg/mL (Phase I)", "value": "absent"}, {"measurement": "apoptotic staining (TUNEL)", "setting": "[1]; 3.906 μg/mL (Phase II)", "value": "evident"}, {"measurement": "apoptotic staining (TUNEL)", "setting": "[1]; 15.625 μg/mL (Phase III)", "value": "evident"}, {"measurement": "apoptotic staining (TUNEL)", "setting": "[2]; 0.0076 μg/mL (Phase I)", "value": "evident"}, {"measurement": "apoptotic staining (TUNEL)", "setting": "[2]; 3.906 μg/mL (Phase II)", "value": "evident"}, {"measurement": "apoptotic staining (TUNEL)", "setting": "[2]; 15.625 μg/mL (Phase III)", "value": "evident"}, {"measurement": "calculated AUCt>24", "setting": "[3]; Phase I", "value": 0.0, "unit": "cfu·μg/mL"}, {"measurement": "calculated AUCt>24", "setting": "[3]; Phase II", "value": 2.05, "unit": "cfu·μg/mL"}, {"measurement": "calculated AUCt>24", "setting": "[3]; Phase III", "value": 107, "unit": "cfu·μg/mL"}, {"measurement": "average % inhibition", "setting": "[3]; range of 0.0019-0.0152 μg/mL metal", "value": 0, "unit": "%"}]}
{"compound": "silver arsphenamine", "values": [{"measurement": "LOAEL (lowest-observed-adverse-effect level) for argyria", "setting": "[4]", "value": 0.014, "unit": "mg/kg/day"}]}
